Measured values as given in the supplement of paper PMC10307832.

What was measured:
Assay in all cases: relative viability (nuclei count vs DMSO), 5 days (fraction); higher = more cells survive
NCI-H596 = system: NCI-H596
Method in brief: (§1)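 A single step with final 0.05% Triton X-100, 1% formaldehyde and 1 ug/ml Hoechst fixed the cells and stained nuclei 5 days after treatment. Lung cancer cell lines in 1536-well plates had been treated by pin tool the day after seeding with one drug alone or a fixed anchor-drug dose plus five library-drug doses (not always all listed) in √10 steps, and nuclei were counted on 4× images. Relative viability is the ratio of nuclei in treated wells to nuclei in vehicle wells, taken as the median of duplicate plates.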

201T = system: 201T
Method in brief: as §1

HCC-44 = system: HCC-44
Method in brief: as §1

NCI-H3122 = system: NCI-H3122
Method in brief: as §1

NCI-H2023 = system: NCI-H2023
Method in brief: as §1

NCI-H23 = system: NCI-H23
Method in brief: as §1

EMC-BAC-2 = system: EMC-BAC-2
Method in brief: as §1

NCI-H1993 = system: NCI-H1993
Method in brief: as §1

HARA = system: HARA
Method in brief: as §1

NCI-H647 = system: NCI-H647
Method in brief: as §1

NCI-H650 = system: NCI-H650
Method in brief: as §1

NCI-H2087 = system: NCI-H2087
Method in brief: as §1

LCLC-103H = system: LCLC-103H
Method in brief: as §1

BEN = system: BEN
Method in brief: as §1

NCI-H441 = system: NCI-H441
Method in brief: as §1

NCI-H1666 = system: NCI-H1666
Method in brief: as §1

NCI-H2126 = system: NCI-H2126
Method in brief: as §1

NCI-H838 = system: NCI-H838
Method in brief: as §1

NCI-H2347 = system: NCI-H2347
Method in brief: as §1

LOU-NH91 = system: LOU-NH91
Method in brief: as §1

NCI-H2009 = system: NCI-H2009
Method in brief: as §1

NCI-H1395 = system: NCI-H1395
Method in brief: as §1

NC(=O)Nc1cc(-c2cccc(F)c2)sc1C(=O)N[C@H]1CCCNC1 [AZD7762] + Nc1nc2[nH]cc(CCc3ccc(C(=O)N[C@@H](CCC(=O)O)C(=O)O)cc3)c2c(=O)[nH]1 [Pemetrexed] (partner 0.2 µM)
relative viability (NCI-H596; first compound 0.01 µM): 0.484 | relative viability (NCI-H596; first compound 0.03162 µM): 0.573 | relative viability (NCI-H596; first compound 0.1 µM): 0.54 | relative viability (NCI-H596; first compound 0.3162 µM): 0.425 | relative viability (NCI-H596; first compound 1 µM): 0.393 | relative viability (201T; first compound 0.01 µM): 0.34 | relative viability (201T; first compound 0.03162 µM): 0.293 | relative viability (201T; first compound 0.1 µM): 0.307 | relative viability (201T; first compound 0.3162 µM): 0.284 | relative viability (201T; first compound 1 µM): 0.296 | relative viability (HCC-44; first compound 0.01 µM): 0.608 | relative viability (HCC-44; first compound 0.03162 µM): 0.548 | relative viability (HCC-44; first compound 0.1 µM): 0.534 | relative viability (HCC-44; first compound 0.3162 µM): 0.451 | relative viability (HCC-44; first compound 1 µM): 0.358 | relative viability (NCI-H3122; first compound 0.01 µM): 0.19 | relative viability (NCI-H3122; first compound 0.03162 µM): 0.188 | relative viability (NCI-H3122; first compound 0.1 µM): 0.167 | relative viability (NCI-H3122; first compound 0.3162 µM): 0.16 | relative viability (NCI-H3122; first compound 1 µM): 0.139 | relative viability (NCI-H2023; first compound 0.01 µM): 0.211 | relative viability (NCI-H2023; first compound 0.03162 µM): 0.156 | relative viability (NCI-H2023; first compound 0.1 µM): 0.112 | relative viability (NCI-H2023; first compound 0.3162 µM): 0.124 | relative viability (NCI-H2023; first compound 1 µM): 0.0879 | relative viability (NCI-H23; first compound 0.01 µM): 0.722 | relative viability (NCI-H23; first compound 0.03162 µM): 0.62 | relative viability (NCI-H23; first compound 0.1 µM): 0.514 | relative viability (NCI-H23; first compound 0.3162 µM): 0.359 | relative viability (NCI-H23; first compound 1 µM): 0.275 | relative viability (EMC-BAC-2; first compound 0.01 µM): 0.457 | relative viability (EMC-BAC-2; first compound 0.03162 µM): 0.397 | relative viability (EMC-BAC-2; first compound 0.1 µM): 0.405 | relative viability (EMC-BAC-2; first compound 0.3162 µM): 0.35 | relative viability (EMC-BAC-2; first compound 1 µM): 0.387 | relative viability (NCI-H1993; first compound 0.01 µM): 0.559 | relative viability (NCI-H1993; first compound 0.03162 µM): 0.487 | relative viability (NCI-H1993; first compound 0.1 µM): 0.602 | relative viability (NCI-H1993; first compound 0.3162 µM): 0.586 | relative viability (NCI-H1993; first compound 1 µM): 0.578 | relative viability (HARA; first compound 0.01 µM): 0.23 | relative viability (HARA; first compound 0.03162 µM): 0.25 | relative viability (HARA; first compound 0.1 µM): 0.198 | relative viability (HARA; first compound 0.3162 µM): 0.16 | relative viability (HARA; first compound 1 µM): 0.164 | relative viability (NCI-H647; first compound 0.01 µM): 0.146 | relative viability (NCI-H647; first compound 0.03162 µM): 0.128 | relative viability (NCI-H647; first compound 0.1 µM): 0.108 | relative viability (NCI-H647; first compound 0.3162 µM): 0.0887 | relative viability (NCI-H647; first compound 1 µM): 0.0641 | relative viability (NCI-H650; first compound 0.01 µM): 1.01 | relative viability (NCI-H650; first compound 0.03162 µM): 0.891 | relative viability (NCI-H650; first compound 0.1 µM): 0.968 | relative viability (NCI-H650; first compound 0.3162 µM): 0.821 | relative viability (NCI-H650; first compound 1 µM): 0.644 | relative viability (NCI-H2087; first compound 0.01 µM): 0.718 | relative viability (NCI-H2087; first compound 0.03162 µM): 0.654 | relative viability (NCI-H2087; first compound 0.1 µM): 0.714 | relative viability (NCI-H2087; first compound 0.3162 µM): 0.66 | relative viability (NCI-H2087; first compound 1 µM): 0.692 | relative viability (LCLC-103H; first compound 0.01 µM): 0.464 | relative viability (LCLC-103H; first compound 0.03162 µM): 0.498 | relative viability (LCLC-103H; first compound 0.1 µM): 0.45 | relative viability (LCLC-103H; first compound 0.3162 µM): 0.452 | relative viability (LCLC-103H; first compound 1 µM): 0.394 | relative viability (BEN; first compound 0.01 µM): 0.804 | relative viability (BEN; first compound 0.03162 µM): 0.902 | relative viability (BEN; first compound 0.1 µM): 0.757 | relative viability (BEN; first compound 0.3162 µM): 0.809 | relative viability (BEN; first compound 1 µM): 0.606 | relative viability (NCI-H441; first compound 0.01 µM): 0.267 | relative viability (NCI-H441; first compound 0.03162 µM): 0.288 | relative viability (NCI-H441; first compound 0.1 µM): 0.294 | relative viability (NCI-H441; first compound 0.3162 µM): 0.275 | relative viability (NCI-H441; first compound 1 µM): 0.271 | relative viability (NCI-H1666; first compound 0.01 µM): 0.851 | relative viability (NCI-H1666; first compound 0.03162 µM): 0.838 | relative viability (NCI-H1666; first compound 0.1 µM): 0.739 | relative viability (NCI-H1666; first compound 0.3162 µM): 0.594 | relative viability (NCI-H1666; first compound 1 µM): 0.719 | relative viability (NCI-H2126; first compound 0.01 µM): 0.659 | relative viability (NCI-H2126; first compound 0.03162 µM): 0.646 | relative viability (NCI-H2126; first compound 0.1 µM): 0.553 | relative viability (NCI-H2126; first compound 0.3162 µM): 0.576 | relative viability (NCI-H2126; first compound 1 µM): 0.365 | relative viability (NCI-H838; first compound 0.01 µM): 0.25 | relative viability (NCI-H838; first compound 0.03162 µM): 0.192 | relative viability (NCI-H838; first compound 0.1 µM): 0.177 | relative viability (NCI-H838; first compound 0.3162 µM): 0.177 | relative viability (NCI-H838; first compound 1 µM): 0.167 | relative viability (NCI-H2347; first compound 0.01 µM): 0.448 | relative viability (NCI-H2347; first compound 0.03162 µM): 0.395 | relative viability (NCI-H2347; first compound 0.1 µM): 0.455 | relative viability (NCI-H2347; first compound 0.3162 µM): 0.403 | relative viability (NCI-H2347; first compound 1 µM): 0.329 | relative viability (LOU-NH91; first compound 0.01 µM): 0.437 | relative viability (LOU-NH91; first compound 0.03162 µM): 0.306 | relative viability (LOU-NH91; first compound 0.1 µM): 0.335 | relative viability (LOU-NH91; first compound 0.3162 µM): 0.359 | relative viability (LOU-NH91; first compound 1 µM): 0.349 | relative viability (NCI-H2009; first compound 0.01 µM): 1 | relative viability (NCI-H2009; first compound 0.03162 µM): 1.02 | relative viability (NCI-H2009; first compound 0.1 µM): 1.03 | relative viability (NCI-H2009; first compound 0.3162 µM): 0.888 | relative viability (NCI-H2009; first compound 1 µM): 0.783 | relative viability (NCI-H1395; first compound 0.01 µM): 0.847 | relative viability (NCI-H1395; first compound 0.03162 µM): 0.768 | relative viability (NCI-H1395; first compound 0.1 µM): 0.641 | relative viability (NCI-H1395; first compound 0.3162 µM): 0.401 | relative viability (NCI-H1395; first compound 1 µM): 0.306
